Assay results reported in patent publication US4278658A, “Deodorant composition” (priority 1978, dated 1981).

Legend:
lipoxidase (ECl.12.1.13) = molecular target: T1, lipoxidase (ECl.12.1.13) (Glycine max, UniProt P08170); assay: Lipoxidase test: inhibition of oxidation of linoleic acid by lipoxidase; format: biochemical; parameters: inhibition: concentration or dose not given beside the values; conditions: for inhibition / inhibition at 0.5 % strength: read-out: LIC (lipoxidase inhibiting capacity)
T1 sequence (P08170 1-839): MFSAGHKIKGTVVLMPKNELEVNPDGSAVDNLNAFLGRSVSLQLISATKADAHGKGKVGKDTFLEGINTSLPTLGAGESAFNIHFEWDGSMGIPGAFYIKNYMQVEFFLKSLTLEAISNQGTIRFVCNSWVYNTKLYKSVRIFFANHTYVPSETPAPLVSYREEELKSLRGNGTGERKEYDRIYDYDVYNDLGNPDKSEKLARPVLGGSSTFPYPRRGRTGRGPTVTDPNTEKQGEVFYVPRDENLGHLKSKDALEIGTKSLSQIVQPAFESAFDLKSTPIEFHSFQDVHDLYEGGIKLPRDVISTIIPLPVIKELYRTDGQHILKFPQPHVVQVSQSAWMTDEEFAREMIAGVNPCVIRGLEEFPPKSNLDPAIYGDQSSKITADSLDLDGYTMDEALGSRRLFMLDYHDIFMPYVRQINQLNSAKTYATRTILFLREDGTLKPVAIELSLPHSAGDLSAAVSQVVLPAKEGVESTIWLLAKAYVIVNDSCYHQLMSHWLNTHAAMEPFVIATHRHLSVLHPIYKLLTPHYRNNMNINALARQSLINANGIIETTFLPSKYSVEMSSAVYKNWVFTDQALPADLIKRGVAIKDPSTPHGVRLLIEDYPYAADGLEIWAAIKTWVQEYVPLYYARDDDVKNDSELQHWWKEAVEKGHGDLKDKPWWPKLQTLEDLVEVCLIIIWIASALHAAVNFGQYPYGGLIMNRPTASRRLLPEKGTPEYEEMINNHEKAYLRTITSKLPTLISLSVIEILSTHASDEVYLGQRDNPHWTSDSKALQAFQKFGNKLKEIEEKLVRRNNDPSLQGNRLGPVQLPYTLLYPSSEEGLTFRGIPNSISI

[1] = Morpholine test: depression of the partial vapour pressure of morpholine beyond Raoult's Law; conditions: morpholine 0.25 g + material 1 g, 37° C., 30 minutes, headspace GC
[2] = % inhibition = 100 (S1-S2)/S1, 0.5% by weight solution of material in ethanol in test substrate, borate buffer pH 9.0, 234 nm

Row | Molecule | inhibition (lipoxidase (ECl.12.1.13); pH 9) [%] | RVR (Raoult variance ratio) [1] | inhibition at 0.5 % strength (lipoxidase (ECl.12.1.13); pH 9) [%] | LIC (lipoxidase inhibiting capacity) (lipoxidase (ECl.12.1.13); [2]) [%] | LIC (lipoxidase inhibiting capacity) (lipoxidase (ECl.12.1.13); pH 9) [%]
1 | CC1COCc2cc3c(cc21)C(C)(C)C(C)C3(C)C (stereo not drawn) [1,3,4,6,7,8-Hexahydro-4,6,6,7,8,8-hexamethyl cyclopenta-α-2-benzopyran] | 100 | – | – | – | –
2 | CCCCCCCC1CCCC1=O (stereo not drawn) [2-n-Heptylcyclopentanone] | 56 | 1.05 | – | – | –
3 | CC1(C)CCCC2(C)C1CCC1(C)OCCC12 (stereo not drawn) [3a-Methyl-dodecahydro-6,6,9a-trimethylnaphtho(2,1-b)furan] | 58 | 1.30 | – | – | –
4 | O=C(OCc1ccccc1)c1ccccc1O [Benzyl salicylate] | – | 1.58 | 0 | – | –
5 | Cc1ccc(C(C)C)cc1O [Carvacrol] | – | 1.43 | 32 | – | –
6 | O=c1ccc2ccccc2o1 [Coumarin] | 58 | 1.22 | – | – | –
7 | CCOC(=O)c1ccccc1C(=O)OCC [Diethyl phthalate] | – | 1.20 | 79 | – | –
8 | CCOc1cc(C=O)ccc1O [Ethyl vanillin] | – | 1.43 | 100 | – | –
9 | CCCCCCC(CCOC(C)=O)OC(C)=O (stereo not drawn) [Nonanediol-1,3-diacetate] | 33 | 1.17 | – | – | –
10 | CCCCCC1CCC(=O)O1 (stereo not drawn) [Nonanolide-1:4] | 92 | 0.87 | – | – | –
11 | OCCc1ccccc1 [Phenylethyl alcohol] | 22 | 1.24 | – | – | –
12 | CC(C)CCOC(=O)c1ccccc1O [iso-Amyl salicylate] | 95 | 1.24 | – | – | –
13 | C/C=C\c1ccc(O)c(OC)c1 [iso-Eugenol] | – | 1.48 | 100 | – | –
14 | CC(=O)OC1CCCCC1C(C)(C)C (stereo not drawn) [o-t-Butylcyclohexyl acetate] | 52 | 1.08 | – | – | –
15 | CCC(C)(C)C1CCC(=O)CC1 [p-t-Amyl cyclohexanone] | 50 | 1.10 | – | – | –
16 | CC(C=O)Cc1ccc(C(C)(C)C)cc1 (stereo not drawn) [p-t-Butyl-α-methyl hydrocinnamic aldehyde] | 74 | – | – | – | –
17 | CC(=O)OC1CCC(C(C)(C)C)CC1 (stereo not drawn) [p-t-Butylcyclohexyl acetate] | 54 | 0.98 | – | – | –
18 | CC(=O)c1ccc2ccccc2c1 [β-Methyl naphthyl ketone] | – | 0.96 | 100 | – | –
19 | Dimyrcetol | – | 1.22 | – | 16 | –
20 | Tetrahydromuguol | – | 1.23 | – | – | 24
21 | i-Nonyl acetate | – | 0.83 | – | 50 | –
22 | i-Nonyl formate | – | 1.49 | – | – | 19
